Assay results as given in ChEMBL document CHEMBL1123137 (J Med Chem, 1985).

Legend:
[1] = HPLC capacity factor (k'); assay type: ADME
[2] = target: Adenosine receptor A2a (Canis lupus familiaris) (UniProt P11617); assay: Molar potency ratio was evaluated
Chain of Adenosine receptor A2a (Canis lupus familiaris) (P11617 whole entry, looked up): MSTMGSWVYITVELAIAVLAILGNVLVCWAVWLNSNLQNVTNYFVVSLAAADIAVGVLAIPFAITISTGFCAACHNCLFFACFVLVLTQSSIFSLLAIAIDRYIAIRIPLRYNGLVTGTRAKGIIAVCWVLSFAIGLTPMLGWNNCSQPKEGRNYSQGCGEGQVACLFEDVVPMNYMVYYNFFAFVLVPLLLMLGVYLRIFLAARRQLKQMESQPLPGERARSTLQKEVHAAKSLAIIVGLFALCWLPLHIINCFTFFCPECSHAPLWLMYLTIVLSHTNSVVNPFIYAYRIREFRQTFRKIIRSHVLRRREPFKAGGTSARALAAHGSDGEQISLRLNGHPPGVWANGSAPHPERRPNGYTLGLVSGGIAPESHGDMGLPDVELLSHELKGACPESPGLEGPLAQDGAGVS

## COc1ncnc2c1ncn2[C@@H]1O[C@H](CO)[C@@H](O)[C@@H]1O
[1]
  k': 0.16
[2]
  MPR: 0.004

## C#CCNc1ncnc2c1ncn2C1O[C@H](CO)[C@@H](O)[C@H]1O (some centres undefined)
[1]
  k': 0.21
[2]
  MPR: 0.23

## C[C@@H](Cc1ccccc1)Nc1ncnc2c1ncn2[C@@H]1OC(CO)[C@@H](O)[C@H]1O (single isomer, unassigned)
[1]
  k': 2.61

## CC1(Nc2ncnc3c2ncn3C2O[C@H](CO)[C@@H](O)[C@H]2O)CCCC1 (some centres undefined)
[1]
  k': 5.02
[2]
  MPR: 0.033

## CC[C@@H](CO)Nc1ncnc2c1ncn2[C@@H]1O[C@H](CO)[C@@H](O)[C@H]1O
[1]
  k': 0.52
[2]
  MPR: 0.12

## OC[C@H]1O[C@@H](n2cnc3c(N[C@H]4C[C@@H]4c4ccccc4)ncnc32)[C@H](O)[C@@H]1O
[1]
  k': 2.36
[2]
  MPR: 0.7

## CC[C@H](CO)Nc1ncnc2c1ncn2[C@@H]1O[C@H](CO)[C@@H](O)[C@H]1O
[1]
  k': 0.4
[2]
  MPR: 0.77

## CCCCC(C)Nc1ncnc2c1ncn2C1O[C@H](CO)[C@@H](O)[C@H]1O (some centres undefined)
[1]
  k': 4.46
[2]
  MPR: 0.56

## CC(C)(C)CCNc1ncnc2c1ncn2C1O[C@H](CO)[C@@H](O)[C@H]1O (some centres undefined)
[1]
  k': 4.71
[2]
  MPR: 0.084

## OC[C@H]1O[C@@H](n2cnc3c(NO)ncnc32)[C@H](O)[C@@H]1O
[1]
  k': 0.16

## NNc1ncnc2c1ncn2[C@@H]1O[C@H](CO)[C@@H](O)[C@H]1O
[1]
  k': 0.14
[2]
  MPR: 0.046

## OC[C@H]1O[C@@H](n2cnc3c(NC4CC5CCC4C5)ncnc32)[C@H](O)[C@@H]1O (stereo in doubt; 57) [listing 1 of 2 here]
[1]
  k': 2.63

## C[C@@H](Nc1ncnc2c1ncn2[C@@H]1O[C@H](CO)[C@@H](O)[C@H]1O)[C@@H](O)c1ccccc1
[1]
  k': 1.32
[2]
  MPR: 2.9

## CCNc1ncnc2c1ncn2C1O[C@H](CO)[C@@H](O)[C@H]1O (some centres undefined)
[1]
  k': 0.29
[2]
  MPR: 0.15

## CCCCCC(C)Nc1ncnc2c1ncn2C1O[C@H](CO)[C@@H](O)[C@H]1O (some centres undefined)
[1]
  k': 8.54
[2]
  MPR: 0.31

## OC[C@H]1O[C@@H](n2cnc3c(NC4CC5CCC4C5)ncnc32)[C@H](O)[C@@H]1O (stereo in doubt; 57) [listing 2 of 2 here]
[2]
  MPR: 0.54

## C[C@H](CCc1ccccc1)Nc1ncnc2c1ncn2[C@@H]1O[C@H](CO)[C@@H](O)[C@H]1O
[1]
  k': 6.11
[2]
  MPR: 0.19

## OC[C@H]1O[C@@H](n2cnc3c(NC4CC4)ncnc32)[C@H](O)[C@@H]1O
[1]
  k': 0.2
[2]
  MPR: 0.38

## CCCNc1ncnc2c1ncn2C1O[C@H](CO)[C@@H](O)[C@H]1O (some centres undefined)
[1]
  k': 0.57
[2]
  MPR: 0.64

## OC[C@H]1OC(n2cnc3c(NCC(O)c4ccccc4)ncnc32)[C@H](O)[C@@H]1O (some centres undefined)
[1]
  k': 0.79
[2]
  MPR: 1.4

## Cc1ncnc2c1ncn2[C@@H]1O[C@H](CO)[C@@H](O)[C@H]1O
[2]
  MPR: 0.007

## OC[C@H]1O[C@@H](n2cnc3c(NC4CCC4)ncnc32)[C@H](O)[C@@H]1O
[1]
  k': 0.2
[2]
  MPR: 1.6

## OC[C@H]1OC(n2cnc3c(NCCC4CCCCC4)ncnc32)[C@H](O)[C@@H]1O (some centres undefined)
[1]
  k': 8.92
[2]
  MPR: 0.04

## OC[C@H]1O[C@@H](n2cnc3c(NC4CCCC4)ncnc32)[C@H](O)[C@@H]1O [N6-CYCLOPENTYLADENOSINE]
[1]
  k': 1.25
[2]
  MPR: 1.8

## C[C@@H](CO)Nc1ncnc2c1ncn2C1O[C@H](CO)[C@@H](O)[C@H]1O (some centres undefined)
[1]
  k': 0.28
[2]
  MPR: 0.098

## CC(C)(C)CNc1ncnc2c1ncn2C1O[C@H](CO)[C@@H](O)[C@H]1O (some centres undefined)
[1]
  k': 2.5
[2]
  MPR: 0.064

## CC(C)(Cc1ccccc1)Nc1ncnc2c1ncn2C1O[C@H](CO)[C@@H](O)[C@H]1O (some centres undefined)
[1]
  k': 7.43
[2]
  MPR: 0.011

## OC[C@H]1OC(n2cnc3c(NC(Cc4ccccc4)Cc4ccccc4)ncnc32)[C@H](O)[C@@H]1O (some centres undefined)
[1]
  k': 14.83
[2]
  MPR: 0.33

## OC[C@H]1OC(n2cnc3c(NC(C4CC4)C4CC4)ncnc32)[C@H](O)[C@@H]1O (some centres undefined)
[1]
  k': 2.68
[2]
  MPR: 1.5

## OC[C@H]1O[C@@H](n2cnc3c(N[C@@H]4C[C@H]4c4ccccc4)ncnc32)[C@H](O)[C@@H]1O
[1]
  k': 2.43
[2]
  MPR: 0.31

## C[C@@H](Nc1ncnc2c1ncn2[C@@H]1O[C@H](CO)[C@@H](O)[C@H]1O)[C@H](O)c1ccccc1
[1]
  k': 0.96
[2]
  MPR: 1.8

## CCCC(C)Nc1ncnc2c1ncn2C1O[C@H](CO)[C@@H](O)[C@H]1O (some centres undefined)
[1]
  k': 2.38
[2]
  MPR: 1.1

## CCC(CNc1ncnc2c1ncn2C1O[C@H](CO)[C@@H](O)[C@H]1O)c1ccccc1 (some centres undefined)
[1]
  k': 5.89
[2]
  MPR: 3.3

## CNc1ncnc2c1ncn2[C@@H]1O[C@H](CO)[C@@H](O)[C@H]1O
[1]
  k': 0.07
[2]
  MPR: 0.05

## CN(C)c1ncnc2c1ncn2[C@@H]1O[C@H](CO)[C@@H](O)[C@H]1O
[2]
  MPR: 0.001

## NCCNc1ncnc2c1ncn2C1O[C@H](CO)[C@@H](O)[C@H]1O (some centres undefined)
[1]
  k': 0.11
[2]
  MPR: 0.072

## OC[C@H]1O[C@@H](n2cnc3c(NC4CC5CCC4C5)ncnc32)[C@H](O)[C@@H]1O (stereo in doubt; 58)
[2]
  MPR: 0.55

## OC[C@H]1O[C@@H](n2cnc3c(NC4C5CCC4CC5)ncnc32)[C@H](O)[C@@H]1O (some centres undefined)
[1]
  k': 3.5
[2]
  MPR: 0.39

## C[C@@H](CCc1ccccc1)Nc1ncnc2c1ncn2[C@@H]1O[C@H](CO)[C@@H](O)[C@H]1O
[1]
  k': 6.47
[2]
  MPR: 0.05

## CCCCCCC(C)Nc1ncnc2c1ncn2C1O[C@H](CO)[C@@H](O)[C@H]1O (some centres undefined)
[1]
  k': 16.88
[2]
  MPR: 0.052

## OC[C@H]1O[C@@H](n2cnc3/c(=N\OCc4ccccc4)[nH]cnc32)[C@H](O)[C@@H]1O
[1]
  k': 1.04
[2]
  MPR: 0.42

## CN(Nc1ncnc2c1ncn2C1O[C@H](CO)[C@@H](O)[C@H]1O)c1ccccc1 (some centres undefined)
[1]
  k': 0.93
[2]
  MPR: 1.8

## OC[C@H]1O[C@@H](n2cnc3/c(=N\O)[nH]cnc32)[C@H](O)[C@@H]1O
[2]
  MPR: 0.16

## OC[C@H]1O[C@@H](n2cnc3c(Cl)ncnc32)[C@H](O)[C@@H]1O
[2]
  MPR: 0.023

## C[C@@H](CNc1ncnc2c1ncn2[C@@H]1O[C@H](CO)[C@@H](O)[C@H]1O)c1ccccc1
[1]
  k': 2.89
[2]
  MPR: 2.4

## C=CCNc1ncnc2c1ncn2[C@@H]1O[C@H](CO)[C@@H](O)[C@H]1O
[1]
  k': 0.36
[2]
  MPR: 0.23

## C[C@H](CNc1ncnc2c1ncn2[C@@H]1O[C@H](CO)[C@@H](O)[C@H]1O)c1ccccc1
[1]
  k': 3
[2]
  MPR: 3

## CCCCCCNc1ncnc2c1ncn2C1O[C@H](CO)[C@@H](O)[C@H]1O (some centres undefined)
[1]
  k': 5.88
[2]
  MPR: 0.2

## OC[C@H]1O[C@@H](n2cnc3cncnc32)[C@H](O)[C@@H]1O
[2]
  MPR: 0.023

## C[C@H](Nc1ncnc2c1ncn2[C@@H]1O[C@H](CO)[C@@H](O)[C@H]1O)c1ccccc1
[1]
  k': 1.89
[2]
  MPR: 0.2

## OC[C@H]1OC(n2cnc3c(NCC4CC4)ncnc32)[C@H](O)[C@@H]1O (some centres undefined)
[1]
  k': 0.71
[2]
  MPR: 0.58

## CCCCCNc1ncnc2c1ncn2[C@@H]1O[C@H](CO)[C@@H](O)[C@H]1O
[1]
  k': 3.08
[2]
  MPR: 0.36
